Measurements: patent US20140024527A1, “HERBICIDAL PYRAZINONES” (E I DU DE NEMOURS AND COMPANY, priority 2011, published 2014)

Legend:
Format in all cases: in vivo
[1] = tested on: barnyardgrass (Echinochloa crus-galli); assay: Test A preemergence; details: 0 to 100 scale, 0 no effect, 100 complete control, approx. 10 days
Excerpt: (§1) Seeds of barnyardgrass (Echinochloa crus-galli), large crabgrass (Digitaria sanguinalis), giant foxtail (Setaria faberii), morningglory (Ipomoea spp.), pigweed (Amaranthus retroflexus), velvetleaf (Abutilon theophrasti), wheat (Triticum aestivum) and corn (Zea mays) were planted into a blend of loam soil and sand and treated preemergence with a directed soil spray using test chemicals formulated in a non-phytotoxic solvent mixture which included a surfactant. At the same time these species were also treated with postemergence applications of test compounds formulated in the same manner. Plants ranged in height from 2 to 10 cm and were in the one- to two-leaf stage for the postemergence treatments. Treated plants and untreated controls were maintained in a greenhouse for approximately 10 days, after which time all treated plants were compared to untreated controls and visually evaluated for injury. Plant response ratings, summarized in Table A, are based on a 0 to 100 scale where 0 is no effect and 100 is complete control.

[2] = tested on: morningglory (Ipomoea spp.); assay: Test A preemergence; details: 0 to 100 scale, 0 no effect, 100 complete control, approx. 10 days
Excerpt: as §1

[3] = tested on: large crabgrass (Digitaria sanguinalis); assay: Test A preemergence; details: 0 to 100 scale, 0 no effect, 100 complete control, approx. 10 days
Excerpt: as §1

[4] = tested on: wheat (Triticum aestivum); assay: Test A preemergence; details: 0 to 100 scale, 0 no effect, 100 complete control, approx. 10 days
Excerpt: as §1

[5] = tested on: pigweed (Amaranthus retroflexus); assay: Test A preemergence; details: 0 to 100 scale, 0 no effect, 100 complete control, approx. 10 days
Excerpt: as §1

[6] = tested on: giant foxtail (Setaria faberii); assay: Test A preemergence; details: 0 to 100 scale, 0 no effect, 100 complete control, approx. 10 days
Excerpt: as §1

corn (Zea mays) [7] = assay: Test A preemergence; details: 0 to 100 scale, 0 no effect, 100 complete control, approx. 10 days
Excerpt: as §1

[8] = tested on: velvetleaf (Abutilon theophrasti); assay: Test A preemergence; details: 0 to 100 scale, 0 no effect, 100 complete control, approx. 10 days
Excerpt: as §1

[9] = tested on: barnyardgrass (Echinochloa crus-galli); assay: Test B flooded paddy test; details: Flood
Excerpt: (§2) Plant species in the flooded paddy test consisted of rice (Oryza sativa), umbrella sedge (Cyperus difformis), ducksalad (Heteranthera limosa) and barnyardgrass (Echinochloa crus-galli) grown to the 2-leaf stage for testing. At time of treatment, test pots were flooded to 3 cm above the soil surface, treated by application of test compounds directly to the paddy water, and then maintained at that water depth for the duration of the test. Treated plants and controls were maintained in a greenhouse for 13 to 15 days, after which time all species were compared to controls and visually evaluated. Plant response ratings, summarized in Table B, are based on a scale of 0 to 100 where 0 is no effect and 100 is complete control. A dash (-) response means no test result.

rice (Oryza sativa) = assay: Test B flooded paddy test; details: Flood, scale 0 to 100
Excerpt: as §2

[10] = tested on: ducksalad (Heteranthera limosa); assay: Test B flooded paddy test; details: Flood, scale 0 to 100
Excerpt: as §2

[11] = tested on: umbrella sedge (Cyperus difformis); assay: Test B flooded paddy test; details: Flood, scale 0 to 100
Excerpt: as §2

[12] = tested on: barnyardgrass (Echinochloa crus-galli); assay: Test A postemergence; details: 0 to 100 scale, 0 no effect, 100 complete control, approx. 10 days
Excerpt: as §1

[13] = tested on: morningglory (Ipomoea spp.); assay: Test A postemergence; details: 0 to 100 scale, 0 no effect, 100 complete control, approx. 10 days
Excerpt: as §1

[14] = tested on: large crabgrass (Digitaria sanguinalis); assay: Test A postemergence; details: 0 to 100 scale, 0 no effect, 100 complete control, approx. 10 days
Excerpt: as §1

[15] = tested on: wheat (Triticum aestivum); assay: Test A postemergence; details: 0 to 100 scale, 0 no effect, 100 complete control, approx. 10 days
Excerpt: as §1

[16] = tested on: pigweed (Amaranthus retroflexus); assay: Test A postemergence; details: 0 to 100 scale, 0 no effect, 100 complete control, approx. 10 days
Excerpt: as §1

[17] = tested on: giant foxtail (Setaria faberii); assay: Test A postemergence; details: 0 to 100 scale, 0 no effect, 100 complete control, approx. 10 days
Excerpt: as §1

corn (Zea mays) [18] = assay: Test A postemergence; details: 0 to 100 scale, 0 no effect, 100 complete control, approx. 10 days
Excerpt: as §1

[19] = tested on: velvetleaf (Abutilon theophrasti); assay: Test A postemergence; details: 0 to 100 scale, 0 no effect, 100 complete control, approx. 10 days
Excerpt: as §1

CCCCn1c(-c2ccccc2)cnc(C(=O)C2=C(O)CCCC2=O)c1=O [Compound 1, 1-butyl-3-[(2-hydroxy-6-oxo-1-cyclohexen-1-yl)carbonyl]-6-phenyl-2(1H)-pyrazinone]
Plant response rating, Barnyardgrass ([1]; 125 g ai/ha): 0
Plant response rating, Barnyardgrass ([1]; 500 g ai/ha): 80
Plant response rating, Morningglory ([2]; 125 g ai/ha): 0
Plant response rating, Morningglory ([2]; 500 g ai/ha): 70
Plant response rating, Crabgrass, Large ([3]; 125 g ai/ha): 10
Plant response rating, Crabgrass, Large ([3]; 500 g ai/ha): 40
Plant response rating, Wheat ([4]; 125 g ai/ha): 0
Plant response rating, Wheat ([4]; 500 g ai/ha): 0
Plant response rating, Pigweed ([5]; 125 g ai/ha): 60
Plant response rating, Pigweed ([5]; 500 g ai/ha): 100
Plant response rating, Foxtail, Giant ([6]; 125 g ai/ha): 0
Plant response rating, Foxtail, Giant ([6]; 500 g ai/ha): 30
Plant response rating, Corn (corn (Zea mays) [7]; 125 g ai/ha): 0
Plant response rating, Corn (corn (Zea mays) [7]; 500 g ai/ha): 0
Plant response rating, Velvetleaf ([8]; 125 g ai/ha): 50
Plant response rating, Velvetleaf ([8]; 500 g ai/ha): 100
Plant response rating, Barnyardgrass ([9]; 62 g ai/ha, scale 0 to 100): 60
Plant response rating, Barnyardgrass ([9]; 250 g ai/ha, scale 0 to 100 (0 no effect, 100 complete control)): 80
Plant response rating, Rice (rice (Oryza sativa); 62 g ai/ha): 70
Plant response rating, Rice (rice (Oryza sativa); 250 g ai/ha): 85
Plant response rating, Ducksalad ([10]; 62 g ai/ha): 60
Plant response rating, Ducksalad ([10]; 250 g ai/ha): 95
Plant response rating, Sedge, Umbrella ([11]; 62 g ai/ha): 70
Plant response rating, Sedge, Umbrella ([11]; 250 g ai/ha): 95
Plant response rating, Barnyardgrass ([12]; 125 g ai/ha): 10
Plant response rating, Barnyardgrass ([12]; 500 g ai/ha): 80
Plant response rating, Morningglory ([13]; 125 g ai/ha): 40
Plant response rating, Morningglory ([13]; 500 g ai/ha): 100
Plant response rating, Crabgrass, Large ([14]; 125 g ai/ha): 10
Plant response rating, Crabgrass, Large ([14]; 500 g ai/ha): 50
Plant response rating, Wheat ([15]; 125 g ai/ha): 0
Plant response rating, Wheat ([15]; 500 g ai/ha): 0
Plant response rating, Pigweed ([16]; 125 g ai/ha): 60
Plant response rating, Pigweed ([16]; 500 g ai/ha): 100
Plant response rating, Foxtail, Giant ([17]; 125 g ai/ha): 10
Plant response rating, Foxtail, Giant ([17]; 500 g ai/ha): 40
Plant response rating, Corn (corn (Zea mays) [18]; 125 g ai/ha): 0
Plant response rating, Corn (corn (Zea mays) [18]; 500 g ai/ha): 10
Plant response rating, Velvetleaf ([19]; 125 g ai/ha): 100
Plant response rating, Velvetleaf ([19]; 500 g ai/ha): 100
